Reference: US9029328B2, “Methods for cardioprotection and cardioregeneration with dimers of EGF family ligands” (The Brigham and Women's Hospital, Inc., priority 2010, dated 2015)
Each block holds one molecule with its values, some of them ahead of it.

What was measured:
[1] = tested on: ErbB2 and ErbB3 receptors in H3255 cells; assay: Western blot of pHER2 and pHER3 in H3255 cell lysates; type: cell-based
Source text: FIG. 9. Western blot analysis of pHER2 and pHER3 in lysates from H3255 cells stimulated by monovalent NRG (NC) or bivalent NRG (NN) (data representative of 2 independent experiments) (FIG. 9B). A possible mechanism for the observed differences in monovalent NRG compared to bivalent NN, in which NN fosters homodimerization or homo-oligomerization of HER3 at the expense of heterodimers with HER2, is illustrated in the schematic (FIG. 9A).
This hypothesis is further supported by the use of H3255 cells, which express high levels of the ErbB3 receptor and low levels of the ErbB4 receptor. Because the potential phenotypic effects associated with dimerization, oligomerization, and/or aggregation are more apparent with ErbB3 than ErbB4, this setting was chosen for proof-of-concept experiments.

[2] = biological target: T1, soluble crosslinked HER3 homodimers (ErbB3) (Homo sapiens, UniProt P21860); assay: Aggregation of soluble ErbB3 by dynamic light scattering; type: binding; settings: various ligand:ErbB3 ratios, n=10
T1 construct: exposed to soluble crosslinked HER3 homodimers (ErbB3)
Description: FIG. 10. Specific binding of bivalent NN to HER3. Bivalent NN, monovalent NRG
(NC and NN), native NRG, or bivalent EN were exposed to soluble crosslinked HER3 homodimers (ErbB3) and hydrodynamic radius (RH) at various ligand:ErbB3 ratios. Receptor aggregation was determined by dynamic light scattering (n=10).

HER3 and HER4 receptors = assay: NRG relative affinity for HER3 and HER4 versus HER1; type: binding
Source text: Accordingly, in the context of cardiomyocytes, receptor signaling bias can be achieved, for example, through use of a ligand with high affinity for HER4/ErbB4. One such ligand is neuregulin-1β (NRG or NRG1, as used herein). To this end, the invention provides an NRG ligand homodimer. This homodimer induces HER4 homodimerization due to the high affinity of NRG for HER4/ErbB4. NRG binds HER3 and HER4 receptors with approximately 5000-fold greater affinity than HER1. ErbB3 is not expressed on cardiomyocytes however so exposure of these cells to an NRG dimer will stimulate the dimerization of HER4 homodimers without interference from HER3 receptors.

[3] = tested on: hTERT-immortalized human mesenchymal stem cells (hTMSC); assay: ERK phosphorylation in hTMSC, western analysis with densitometry; type: cell-based
Description: FIG. 4. Cellular responses differ between native and bivalent NRG. (A) hTMSC were exposed to native (rhNRG), monovalent (C3, C4) and bivalent (NN) NRG in culture. ERK phosphorylation was measured via western analysis and quantified by densitometry.
Since NRG has high affinity for ErbB3 as well as ErbB4, and since ErbB3 is kinase-deficient, recruitment of ErbB3 homodimers via bivalent NRG should produce a null signaling outcome, whereas native or monovalent engineered NRG should be capable of stimulating ERK phosphorylation in these cells via ErbB2/ErbB3 mediated signaling.

ErbB4 = ErbB4 (Homo sapiens, UniProt Q15303); settings: NRG binding to ErbB4, reference [18]; cited from earlier work
[4] = tested on: Neonatal rat cardiomyocytes (NRCM); assay: Cardiomyocyte viability under doxorubicin, cell titer blue assay; type: cell-based; settings: FIGS. 6 and 7; monomers compared with dimers
Description: FIG. 5. Bivalent NRG attenuates doxorubicin-induced toxicity to cardiomyocytes in vitro. (A) Neonatal rat cardiomyocytes (NRCM) were simultaneously exposed to doxorubicin (1 μM) and either fibroblast growth factor-1 (FGF1, a known NRCM mitogen), native NRG (NRG), or bivalent NRG (NRG-NRG) at the indicated doses. […] (B) Bivalent NRG may preferentially activate the PI3K/Akt pro-survival signaling pathway.
FIG. 6 is a bar graph showing the effect of NRG monomers and NRG homodimers on cardiomyocyte viability in the presence of doxorubicin.
FIG. 7 is a bar graph showing the effect of NRG monomers, NRG homodimers, EGF-NRG heterodimers, and EGF and NRG monomers on cardiomyocyte viability in the presence of doxorubicin.
The activity of engineered ErbB receptor ligands has been verified in multiple cell systems. ErbB receptor profiles in cardiomyocytes are distinct. The efficacy of engineered bivalent ligands has been tested on cardiomyocytes in culture. Specifically, the effects of native and bivalent NRG on cardiomyocytes exposed to DOX-induced cytotoxicity were examined. […] If this effect of bivalent NRG is validated in vivo, it could have significant potential as a new cardioprotective agent against DOX-induced cardiomyopathy.
FIGS. 6 and 7 show similar results.

ErbB1 = ErbB1 (Homo sapiens, UniProt P00533); settings: NRG binding to ErbB1, reference [18]; cited from earlier work
MCF-7 cells = assay: ERK phosphorylation in MCF-7 cells (NRG containing ligands); type: cell-based; settings: inhibitor control
Description: (§1) FIG. 3. Bioactivity of engineered ligands. Stimulation of ERK phosphorylation by engineered EGF (C1, C2) and NRG (C3, C4) compared to native protein. Inhibition of phosphorylation was accomplished via a pan-ErbB kinase inhibitor N-(4-((3-Chloro-4-fluorophenyl)amino)-pyrido[3,4-d]pyrimidin-6-yl)2-butynamide (i), indicating specificity; FIG. 3A (HeLa), FIG. 3B (MCF-7).
(§2) Proteins are produced using a maltose binding protein (MBP) tagged system (pMAL-c2X, New England Biolabs). Proteins are analyzed by Coomassie staining, immunoblotting, mass spectrometry, absorbance at 280 nm, and in vitro cell response versus wild type ligands EGF and NRG. Specificity for ErbB receptor activation was further assessed by including inhibitor controls using the pan-ErbB kinase inhibitor N-(4-((3-Chloro-4-fluorophenyl)amino)-pyrido[3,4-d]pyrimidin-6-yl)-2-butynamide. Bioactivity and ErbB specificity were validated in HeLa and MCF-7 cells (for EGF and NRG containing ligands, respectively) (FIG. 3). HeLa cells express EGFR and ErbB2 and are responsive to EGF while MCF-7 cells express ErbB3 and ErbB4 and are responsive to NRG.

HeLa cells = assay: ERK phosphorylation in HeLa cells (EGF containing ligands); type: cell-based; settings: inhibitor control
Description: as §1, §2

[5] = FDA label; cited from earlier work
infarcted hearts = settings: nanofiber delivery, n=7, from reference [10]; cited from earlier work

T1 sequence (P21860 20-643 limits assumed): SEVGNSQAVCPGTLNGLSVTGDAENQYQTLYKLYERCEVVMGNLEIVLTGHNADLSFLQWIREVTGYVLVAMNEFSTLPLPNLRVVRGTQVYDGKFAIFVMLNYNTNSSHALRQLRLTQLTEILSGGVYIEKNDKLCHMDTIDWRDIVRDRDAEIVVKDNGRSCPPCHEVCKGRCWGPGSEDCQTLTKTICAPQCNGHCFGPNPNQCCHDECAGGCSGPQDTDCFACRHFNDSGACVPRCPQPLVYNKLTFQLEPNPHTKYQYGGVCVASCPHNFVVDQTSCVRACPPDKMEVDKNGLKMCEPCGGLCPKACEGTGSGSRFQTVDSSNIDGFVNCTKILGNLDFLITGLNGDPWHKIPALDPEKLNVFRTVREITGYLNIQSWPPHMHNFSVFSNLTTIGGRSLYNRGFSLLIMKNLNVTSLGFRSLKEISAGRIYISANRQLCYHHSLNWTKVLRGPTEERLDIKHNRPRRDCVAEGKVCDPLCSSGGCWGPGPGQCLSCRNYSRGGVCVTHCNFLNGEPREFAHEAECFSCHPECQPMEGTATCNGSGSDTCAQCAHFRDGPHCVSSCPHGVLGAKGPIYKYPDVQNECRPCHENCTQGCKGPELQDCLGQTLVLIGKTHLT
Chain of ErbB4 (Q15303 26-1308, species assumed): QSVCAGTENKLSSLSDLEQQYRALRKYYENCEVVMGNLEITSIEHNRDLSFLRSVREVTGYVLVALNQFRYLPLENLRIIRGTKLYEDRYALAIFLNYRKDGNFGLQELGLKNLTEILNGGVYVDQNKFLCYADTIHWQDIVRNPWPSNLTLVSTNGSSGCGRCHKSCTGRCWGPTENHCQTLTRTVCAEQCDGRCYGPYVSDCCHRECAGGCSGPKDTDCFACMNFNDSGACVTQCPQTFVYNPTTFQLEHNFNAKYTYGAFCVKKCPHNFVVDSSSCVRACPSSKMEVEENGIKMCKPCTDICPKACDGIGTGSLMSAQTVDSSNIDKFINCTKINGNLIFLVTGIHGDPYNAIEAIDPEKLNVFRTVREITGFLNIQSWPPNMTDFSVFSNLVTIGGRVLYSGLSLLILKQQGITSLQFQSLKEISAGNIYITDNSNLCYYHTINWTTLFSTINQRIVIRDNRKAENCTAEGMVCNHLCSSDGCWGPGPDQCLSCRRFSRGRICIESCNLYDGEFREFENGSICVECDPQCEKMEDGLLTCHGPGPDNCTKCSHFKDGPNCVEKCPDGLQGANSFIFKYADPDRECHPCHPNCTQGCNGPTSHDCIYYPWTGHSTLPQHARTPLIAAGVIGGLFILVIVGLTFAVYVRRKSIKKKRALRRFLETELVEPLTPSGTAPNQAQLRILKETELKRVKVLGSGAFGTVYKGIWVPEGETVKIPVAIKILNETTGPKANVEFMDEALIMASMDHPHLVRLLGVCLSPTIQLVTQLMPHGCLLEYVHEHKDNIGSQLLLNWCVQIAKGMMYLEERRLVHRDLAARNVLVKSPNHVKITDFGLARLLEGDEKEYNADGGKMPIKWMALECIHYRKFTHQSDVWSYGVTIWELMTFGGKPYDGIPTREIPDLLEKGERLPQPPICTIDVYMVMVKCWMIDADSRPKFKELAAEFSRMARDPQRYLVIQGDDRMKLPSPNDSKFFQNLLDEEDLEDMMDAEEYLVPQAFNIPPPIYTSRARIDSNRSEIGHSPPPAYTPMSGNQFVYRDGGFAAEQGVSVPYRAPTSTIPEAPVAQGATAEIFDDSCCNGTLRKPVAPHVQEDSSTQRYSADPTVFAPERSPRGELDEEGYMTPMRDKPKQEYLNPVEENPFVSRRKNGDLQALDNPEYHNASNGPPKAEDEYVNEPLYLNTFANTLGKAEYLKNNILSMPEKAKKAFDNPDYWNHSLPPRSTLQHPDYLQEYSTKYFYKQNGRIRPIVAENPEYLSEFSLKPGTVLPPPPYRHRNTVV

Molecule: NC: Monovalent NRG used as comparator to bivalent NN
phosphorylation of ErbB2 and ErbB3 receptors [1]: stimulates phosphorylation
aggregation of soluble ErbB3 receptors (hydrodynamic radius) [2]: Only bivalent NN induced aggregation

greater affinity for HER3 and HER4 than HER1 (HER3 and HER4 receptors): approximately 5000 fold
Molecule: neuregulin-1β [native NRG]
ERK phosphorylation (pERK response) [3]: dose-dependent increase in ERK phosphorylation
Kd (ErbB4): ~0.7 nM
cardiomyocyte viability in the presence of doxorubicin [4]: significantly (p<0.05) decreased
Kd (ErbB1): ~5550 nM
aggregation of soluble ErbB3 receptors (hydrodynamic radius) [2]: Only bivalent NN induced aggregation

Molecule: CC#CC(=O)Nc1cc2c(Nc3ccc(F)c(Cl)c3)ncnc2cn1 [N-(4-((3-Chloro-4-fluorophenyl)amino)-pyrido[3,4-d]pyrimidin-6-yl)-2-butynamide]
inhibition of ligand-induced pERK activation (MCF-7 cells): specifically inhibited
inhibition of ligand-induced pERK activation (HeLa cells): specifically inhibited

Molecule: COc1cccc2c1C(=O)c1c(O)c3c(c(O)c1C2=O)C[C@@](O)(C(=O)CO)C[C@@H]3O[C@H]1C[C@H](N)[C@H](O)[C@H](C)O1 [doxorubicin]
cumulative dose at which risk of developing impaired myocardial function increases [5]: about 300 mg/m^2

Molecule: SDF-1(S4V): Protease resistant form of SDF-1, delivered via self-assembling peptide nanofibers
capillary density (isolectin-positive staining) (infarcted hearts): increased capillary density
